Measurements as given in ChEMBL document CHEMBL1201862, “PubChem BioAssay data set” (2004).
Active and inactive are the calls of the source.

Experiments:
[1] = molecular target: Peroxisome proliferator-activated receptor gamma/Nuclear receptor coactivator 3 (Homo sapiens, UniProt P37231); assay type: functional;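 further: agonist potency for raising coactivator recruitment to the receptor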
[2] = molecular target: Peroxisome proliferator-activated receptor gamma/Nuclear receptor coactivator 2 (Homo sapiens, UniProt P37231); assay type: functional;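 further: agonist potency for raising coactivator recruitment to the receptor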
[3] = molecular target: Peroxisome proliferator-activated receptor gamma/Nuclear receptor coactivator 1 (Homo sapiens, UniProt P37231); assay type: functional;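 further: agonist potency as compounds enhance coactivator SRC-1 recruitment to PPARgamma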
Sequence of Peroxisome proliferator-activated receptor gamma/Nuclear receptor coactivator 1 (P37231 whole entry): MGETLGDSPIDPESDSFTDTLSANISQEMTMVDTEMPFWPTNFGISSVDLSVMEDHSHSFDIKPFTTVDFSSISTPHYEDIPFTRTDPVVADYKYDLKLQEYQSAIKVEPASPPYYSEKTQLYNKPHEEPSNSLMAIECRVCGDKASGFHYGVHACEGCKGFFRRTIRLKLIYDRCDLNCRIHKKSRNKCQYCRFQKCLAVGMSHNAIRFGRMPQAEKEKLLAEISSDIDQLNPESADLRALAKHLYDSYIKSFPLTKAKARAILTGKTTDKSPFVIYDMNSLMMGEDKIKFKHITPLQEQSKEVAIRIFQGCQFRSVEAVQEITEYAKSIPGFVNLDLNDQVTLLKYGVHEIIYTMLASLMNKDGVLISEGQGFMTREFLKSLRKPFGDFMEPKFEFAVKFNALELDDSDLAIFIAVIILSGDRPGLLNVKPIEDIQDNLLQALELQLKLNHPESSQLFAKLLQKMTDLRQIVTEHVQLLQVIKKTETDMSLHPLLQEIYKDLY
Sequence of Peroxisome proliferator-activated receptor gamma/Nuclear receptor coactivator 1 (Q15788 whole entry, further chain): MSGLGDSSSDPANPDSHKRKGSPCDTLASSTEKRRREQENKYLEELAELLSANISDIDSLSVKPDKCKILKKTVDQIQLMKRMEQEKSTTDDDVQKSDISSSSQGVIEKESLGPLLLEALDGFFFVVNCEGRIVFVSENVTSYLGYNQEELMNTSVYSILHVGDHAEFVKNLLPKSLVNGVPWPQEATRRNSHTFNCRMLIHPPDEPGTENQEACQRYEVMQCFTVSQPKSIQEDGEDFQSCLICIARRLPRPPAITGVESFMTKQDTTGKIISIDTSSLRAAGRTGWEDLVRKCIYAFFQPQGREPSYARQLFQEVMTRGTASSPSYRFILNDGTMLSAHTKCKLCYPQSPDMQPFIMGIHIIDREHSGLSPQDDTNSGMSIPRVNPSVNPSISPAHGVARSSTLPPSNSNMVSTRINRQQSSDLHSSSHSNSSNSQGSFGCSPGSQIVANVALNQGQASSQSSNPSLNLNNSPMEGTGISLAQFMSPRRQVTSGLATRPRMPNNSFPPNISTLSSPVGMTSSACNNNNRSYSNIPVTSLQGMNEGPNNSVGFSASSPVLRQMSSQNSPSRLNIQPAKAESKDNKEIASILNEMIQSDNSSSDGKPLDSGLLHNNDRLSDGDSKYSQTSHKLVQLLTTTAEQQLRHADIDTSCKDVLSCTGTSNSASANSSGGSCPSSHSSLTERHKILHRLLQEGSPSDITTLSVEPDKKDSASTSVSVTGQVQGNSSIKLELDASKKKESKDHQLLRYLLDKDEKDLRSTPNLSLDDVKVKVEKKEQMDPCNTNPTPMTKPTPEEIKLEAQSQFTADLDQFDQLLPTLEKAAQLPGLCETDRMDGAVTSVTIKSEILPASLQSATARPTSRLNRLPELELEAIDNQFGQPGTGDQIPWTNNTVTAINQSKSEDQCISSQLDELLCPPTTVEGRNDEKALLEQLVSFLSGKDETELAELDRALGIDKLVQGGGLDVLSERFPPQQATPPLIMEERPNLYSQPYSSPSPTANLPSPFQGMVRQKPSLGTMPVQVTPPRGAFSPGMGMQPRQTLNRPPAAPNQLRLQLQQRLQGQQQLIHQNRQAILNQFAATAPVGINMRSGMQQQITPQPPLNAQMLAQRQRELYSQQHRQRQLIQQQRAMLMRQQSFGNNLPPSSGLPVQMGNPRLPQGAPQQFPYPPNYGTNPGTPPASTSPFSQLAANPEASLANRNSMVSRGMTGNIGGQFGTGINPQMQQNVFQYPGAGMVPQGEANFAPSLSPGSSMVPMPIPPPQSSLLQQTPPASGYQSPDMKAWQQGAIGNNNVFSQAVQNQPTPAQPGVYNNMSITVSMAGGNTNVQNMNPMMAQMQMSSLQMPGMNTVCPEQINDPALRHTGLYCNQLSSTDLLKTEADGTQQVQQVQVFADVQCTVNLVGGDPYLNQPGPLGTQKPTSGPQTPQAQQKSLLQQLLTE

Aminopeptidase N = molecular target: T1, Aminopeptidase N (Plasmodium falciparum FcB1/Columbia, UniProt O96935); test: P. falciparum M1AAP inhibitors, biochemical, fluorogenic H-Leu-NHMec substrate, 1536-well (AID 1445); design: species or system Plasmodium falciparum 3D7, 3D7
T1 sequence (O96935 whole entry): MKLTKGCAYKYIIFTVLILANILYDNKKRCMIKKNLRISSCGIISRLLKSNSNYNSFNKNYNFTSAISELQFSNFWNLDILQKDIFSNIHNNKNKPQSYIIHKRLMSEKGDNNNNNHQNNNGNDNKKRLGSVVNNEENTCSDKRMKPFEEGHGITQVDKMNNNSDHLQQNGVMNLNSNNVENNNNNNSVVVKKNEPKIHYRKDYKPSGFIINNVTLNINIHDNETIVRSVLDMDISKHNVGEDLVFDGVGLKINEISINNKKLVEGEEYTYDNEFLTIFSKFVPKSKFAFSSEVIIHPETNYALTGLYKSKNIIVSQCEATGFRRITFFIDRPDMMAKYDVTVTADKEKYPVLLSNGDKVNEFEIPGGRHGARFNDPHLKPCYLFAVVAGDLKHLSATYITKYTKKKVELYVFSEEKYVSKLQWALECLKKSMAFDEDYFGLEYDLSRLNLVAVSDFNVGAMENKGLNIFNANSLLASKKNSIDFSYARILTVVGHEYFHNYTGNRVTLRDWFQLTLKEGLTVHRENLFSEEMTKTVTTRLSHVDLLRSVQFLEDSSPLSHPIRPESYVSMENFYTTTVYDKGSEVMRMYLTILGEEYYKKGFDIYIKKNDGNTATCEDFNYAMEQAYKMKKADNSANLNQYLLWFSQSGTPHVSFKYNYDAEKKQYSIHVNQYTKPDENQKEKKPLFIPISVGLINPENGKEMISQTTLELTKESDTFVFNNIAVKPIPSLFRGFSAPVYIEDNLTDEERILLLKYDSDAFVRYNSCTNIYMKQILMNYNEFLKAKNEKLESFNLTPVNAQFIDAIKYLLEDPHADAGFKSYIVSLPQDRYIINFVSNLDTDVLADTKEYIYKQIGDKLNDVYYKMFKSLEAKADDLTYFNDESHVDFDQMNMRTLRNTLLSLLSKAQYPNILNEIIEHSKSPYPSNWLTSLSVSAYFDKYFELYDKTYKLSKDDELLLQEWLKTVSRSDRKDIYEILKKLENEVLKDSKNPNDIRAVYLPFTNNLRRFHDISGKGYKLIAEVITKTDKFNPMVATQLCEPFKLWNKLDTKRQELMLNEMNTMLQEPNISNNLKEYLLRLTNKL

Leucine aminopeptidase = molecular target: T2, Leucine aminopeptidase (Plasmodium falciparum 3D7, UniProt Q8IL11); test: P. falciparum M17LAP inhibitors, primary screen, biochemical, fluorogenic H-Leu-NHMec substrate, 1536-well (AID 1619); assay type: functional
T2 sequence (Q8IL11 whole entry): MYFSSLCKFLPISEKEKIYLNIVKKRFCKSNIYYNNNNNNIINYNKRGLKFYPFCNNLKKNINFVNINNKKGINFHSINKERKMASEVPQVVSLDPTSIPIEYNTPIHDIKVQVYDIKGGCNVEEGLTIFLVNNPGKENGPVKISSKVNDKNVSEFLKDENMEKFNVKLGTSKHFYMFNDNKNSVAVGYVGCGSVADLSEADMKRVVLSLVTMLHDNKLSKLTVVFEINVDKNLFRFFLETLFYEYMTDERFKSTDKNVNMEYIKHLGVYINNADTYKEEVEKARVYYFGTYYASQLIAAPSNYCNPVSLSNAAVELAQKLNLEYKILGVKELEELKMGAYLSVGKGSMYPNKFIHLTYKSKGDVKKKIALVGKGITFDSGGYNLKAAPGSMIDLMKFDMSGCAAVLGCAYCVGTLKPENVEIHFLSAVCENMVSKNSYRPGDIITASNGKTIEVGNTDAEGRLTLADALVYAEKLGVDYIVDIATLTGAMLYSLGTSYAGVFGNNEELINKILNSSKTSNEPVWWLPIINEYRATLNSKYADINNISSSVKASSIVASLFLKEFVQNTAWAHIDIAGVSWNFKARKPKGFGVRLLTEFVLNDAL

[4] = cytotoxicity in HEK-293T cells, dose response, cytotoxicity control for TCR NF-kB inhibitor project, luminescence, T-cell screen hits (AID 489026); assay type: functional, cell-based;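 further: cells exposed to compound about 14 hours before the viability readout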
[5] = molecular target: T3, Short transient receptor potential channel 4 (Mus musculus, UniProt Q9QUQ5); test: mouse TRPC4 channel activators, dose response, cell-based, HEK293 TRPC4/mu-opioid, Fluo-4 calcium (AID 434937); assay type: functional
T3 sequence (Q9QUQ5 whole entry): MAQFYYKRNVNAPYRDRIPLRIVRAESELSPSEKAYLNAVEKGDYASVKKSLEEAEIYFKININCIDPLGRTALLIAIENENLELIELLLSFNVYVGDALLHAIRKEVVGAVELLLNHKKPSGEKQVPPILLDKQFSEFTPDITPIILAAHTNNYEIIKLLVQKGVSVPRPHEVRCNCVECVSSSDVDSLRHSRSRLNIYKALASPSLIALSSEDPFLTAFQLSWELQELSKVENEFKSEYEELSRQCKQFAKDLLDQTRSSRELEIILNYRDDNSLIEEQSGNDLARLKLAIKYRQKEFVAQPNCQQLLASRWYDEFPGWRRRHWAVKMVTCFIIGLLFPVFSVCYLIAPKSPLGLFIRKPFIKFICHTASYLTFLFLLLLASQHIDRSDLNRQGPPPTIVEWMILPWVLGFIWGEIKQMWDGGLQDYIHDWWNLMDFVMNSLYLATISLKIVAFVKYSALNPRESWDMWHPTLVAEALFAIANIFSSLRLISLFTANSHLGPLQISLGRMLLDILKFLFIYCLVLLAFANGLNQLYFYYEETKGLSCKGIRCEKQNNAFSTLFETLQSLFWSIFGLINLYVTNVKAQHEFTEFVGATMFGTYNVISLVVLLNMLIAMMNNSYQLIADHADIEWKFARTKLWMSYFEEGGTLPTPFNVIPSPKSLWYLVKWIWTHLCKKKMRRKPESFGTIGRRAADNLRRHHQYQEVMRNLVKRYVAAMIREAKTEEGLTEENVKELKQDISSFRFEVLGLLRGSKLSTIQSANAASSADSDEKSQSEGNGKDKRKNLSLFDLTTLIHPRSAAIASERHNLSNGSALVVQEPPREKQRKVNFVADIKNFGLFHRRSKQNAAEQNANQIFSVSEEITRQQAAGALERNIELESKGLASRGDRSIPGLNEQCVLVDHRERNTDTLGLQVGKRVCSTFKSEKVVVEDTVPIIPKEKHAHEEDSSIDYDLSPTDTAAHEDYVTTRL

Streptococcus = test: Group A Streptococcus viability loss, dose response, counter-screen for streptokinase expression inhibitor project, luminescence, BacTiterGlo (AID 1915); assay type: functional, organism-based;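 further: potency for reduction of bacterial viability or growth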
Streptokinase A = molecular target: T4, Streptokinase A (Streptococcus pyogenes serotype M1, UniProt P10520); test: S. pyogenes streptokinase expression inhibitors, potency, dose response, plasminogen activation absorbance, OD405 (AID 1914); assay type: functional, Streptococcus pyogenes M1 GAS;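 further: secreted streptokinase activity via plasminogen activation per viability signal from cell pellet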
T4 sequence (P10520 whole entry): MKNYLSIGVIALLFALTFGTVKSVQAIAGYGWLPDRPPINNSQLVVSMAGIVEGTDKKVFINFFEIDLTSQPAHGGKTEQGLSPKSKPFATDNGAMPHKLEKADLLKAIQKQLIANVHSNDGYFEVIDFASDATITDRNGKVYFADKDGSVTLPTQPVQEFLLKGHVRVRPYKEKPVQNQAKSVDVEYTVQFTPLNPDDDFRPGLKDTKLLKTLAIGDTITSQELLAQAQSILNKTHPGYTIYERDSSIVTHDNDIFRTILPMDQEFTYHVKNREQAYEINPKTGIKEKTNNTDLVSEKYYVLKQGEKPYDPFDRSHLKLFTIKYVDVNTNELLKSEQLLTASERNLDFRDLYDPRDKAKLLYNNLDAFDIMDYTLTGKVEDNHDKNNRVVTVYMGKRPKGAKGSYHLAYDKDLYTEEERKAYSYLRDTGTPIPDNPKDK

[6] = tested on: Streptococcus sp. 'group A'; test: growth inhibition of control SK(-) GAS strain, dose response, counter-screen for streptokinase expression inhibitor project, luminescence, kanamycin, BacTiterGlo, confirmation (AID 1900); assay type: functional, organism-based
Vero = test: cells; assay type: functional; settings: Chlorocebus sabaeus
[7] = Luminescence Cell-Based Dose Confirmation HTS to Identify Activators of 5'UTR Stem-Loop Driven Alpha-Synuclein mRNA Translation in H4 Neuroglioblastoma Cells. [Related pubchem assays: 1829 (Project Summary), 1814 (Primary HTS)]; assay type: functional
[8] = Vero E6 cell cytotoxicity, dose response, cytotoxicity control for non-replicating M. tuberculosis project, secondary assay (AID 492998); assay type: functional, VeroE6; settings: Vero C1008
H4 = test: Luminescence Cell-Based Dose Response HTS to Identify Activators of 5'UTR Stem-Loop Driven Prion Protein mRNA Translation in H4 Neuroglioblastoma Cells. [Related pubchem assays: 1829 (Project Summary), 1814 (Primary HTS)]; assay type: functional; settings: Homo sapiens
cells = assay type: functional
[9] = Luminescence Cell-Based Dose Response HTS to Identify Activators of Luciferase Translation or Activity in H4 […] Cells. [Related pubchem assays: 1829 (Project Summary), 1814 (Primary HTS)]; assay type: functional
[10] = THP-1 cell cytotoxicity, dose response, cytotoxicity control for non-replicating M. tuberculosis project (AID 489025); assay type: functional
Beta-galactosidase = Beta-galactosidase (Escherichia coli, UniProt Q8VNN2); test: beta-galactosidase enzyme inhibitors and activators, dose response, artefact control for CCR6 antagonist project, biochemical, E. coli enzyme, set 3 (AID 504712); assay type: functional
Sequence of Beta-galactosidase (Q8VNN2 whole entry): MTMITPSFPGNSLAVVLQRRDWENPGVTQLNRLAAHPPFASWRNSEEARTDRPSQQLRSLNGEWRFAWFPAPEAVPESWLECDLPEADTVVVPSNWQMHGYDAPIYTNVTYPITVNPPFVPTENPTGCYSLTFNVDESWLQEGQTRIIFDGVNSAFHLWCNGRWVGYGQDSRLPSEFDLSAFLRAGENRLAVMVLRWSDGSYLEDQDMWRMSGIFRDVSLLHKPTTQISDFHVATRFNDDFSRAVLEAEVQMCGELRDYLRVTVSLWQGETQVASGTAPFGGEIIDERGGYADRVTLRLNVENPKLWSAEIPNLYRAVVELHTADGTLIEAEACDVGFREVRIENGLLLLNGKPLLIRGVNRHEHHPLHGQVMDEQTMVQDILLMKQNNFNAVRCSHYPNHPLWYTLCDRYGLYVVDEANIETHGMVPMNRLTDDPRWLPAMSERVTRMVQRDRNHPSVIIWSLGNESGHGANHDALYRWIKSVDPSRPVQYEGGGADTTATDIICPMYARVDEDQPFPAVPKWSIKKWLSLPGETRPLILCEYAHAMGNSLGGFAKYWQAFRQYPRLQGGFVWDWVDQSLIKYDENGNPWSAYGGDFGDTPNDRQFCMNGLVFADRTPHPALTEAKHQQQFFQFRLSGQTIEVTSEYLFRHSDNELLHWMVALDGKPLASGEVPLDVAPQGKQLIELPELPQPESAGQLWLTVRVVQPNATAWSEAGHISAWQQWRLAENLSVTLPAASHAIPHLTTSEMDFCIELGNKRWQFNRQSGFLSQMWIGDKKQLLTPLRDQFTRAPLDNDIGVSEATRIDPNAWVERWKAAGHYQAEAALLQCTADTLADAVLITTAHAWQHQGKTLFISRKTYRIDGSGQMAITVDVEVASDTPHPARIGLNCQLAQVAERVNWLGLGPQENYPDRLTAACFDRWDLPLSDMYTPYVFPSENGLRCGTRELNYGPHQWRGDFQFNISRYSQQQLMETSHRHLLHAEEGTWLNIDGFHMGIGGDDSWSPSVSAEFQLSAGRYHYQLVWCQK

[11] = A cytotoxicity screen of small molecule inhibitors of the PhoP region in Salmonella typhi identified in the primary screen. [Related pubchem assays: 1850, 1864, 1985 ]; assay type: functional
[12] = molecular target: Induced myeloid leukemia cell differentiation protein Mcl-1 (Homo sapiens, UniProt Q07820); assay type: functional

Sequence of Peroxisome proliferator-activated receptor gamma/Nuclear receptor coactivator 3 (P37231 whole entry): as the sequence (P37231 whole entry) above
Sequence of Peroxisome proliferator-activated receptor gamma/Nuclear receptor coactivator 3 (Q9Y6Q9 whole entry, further chain): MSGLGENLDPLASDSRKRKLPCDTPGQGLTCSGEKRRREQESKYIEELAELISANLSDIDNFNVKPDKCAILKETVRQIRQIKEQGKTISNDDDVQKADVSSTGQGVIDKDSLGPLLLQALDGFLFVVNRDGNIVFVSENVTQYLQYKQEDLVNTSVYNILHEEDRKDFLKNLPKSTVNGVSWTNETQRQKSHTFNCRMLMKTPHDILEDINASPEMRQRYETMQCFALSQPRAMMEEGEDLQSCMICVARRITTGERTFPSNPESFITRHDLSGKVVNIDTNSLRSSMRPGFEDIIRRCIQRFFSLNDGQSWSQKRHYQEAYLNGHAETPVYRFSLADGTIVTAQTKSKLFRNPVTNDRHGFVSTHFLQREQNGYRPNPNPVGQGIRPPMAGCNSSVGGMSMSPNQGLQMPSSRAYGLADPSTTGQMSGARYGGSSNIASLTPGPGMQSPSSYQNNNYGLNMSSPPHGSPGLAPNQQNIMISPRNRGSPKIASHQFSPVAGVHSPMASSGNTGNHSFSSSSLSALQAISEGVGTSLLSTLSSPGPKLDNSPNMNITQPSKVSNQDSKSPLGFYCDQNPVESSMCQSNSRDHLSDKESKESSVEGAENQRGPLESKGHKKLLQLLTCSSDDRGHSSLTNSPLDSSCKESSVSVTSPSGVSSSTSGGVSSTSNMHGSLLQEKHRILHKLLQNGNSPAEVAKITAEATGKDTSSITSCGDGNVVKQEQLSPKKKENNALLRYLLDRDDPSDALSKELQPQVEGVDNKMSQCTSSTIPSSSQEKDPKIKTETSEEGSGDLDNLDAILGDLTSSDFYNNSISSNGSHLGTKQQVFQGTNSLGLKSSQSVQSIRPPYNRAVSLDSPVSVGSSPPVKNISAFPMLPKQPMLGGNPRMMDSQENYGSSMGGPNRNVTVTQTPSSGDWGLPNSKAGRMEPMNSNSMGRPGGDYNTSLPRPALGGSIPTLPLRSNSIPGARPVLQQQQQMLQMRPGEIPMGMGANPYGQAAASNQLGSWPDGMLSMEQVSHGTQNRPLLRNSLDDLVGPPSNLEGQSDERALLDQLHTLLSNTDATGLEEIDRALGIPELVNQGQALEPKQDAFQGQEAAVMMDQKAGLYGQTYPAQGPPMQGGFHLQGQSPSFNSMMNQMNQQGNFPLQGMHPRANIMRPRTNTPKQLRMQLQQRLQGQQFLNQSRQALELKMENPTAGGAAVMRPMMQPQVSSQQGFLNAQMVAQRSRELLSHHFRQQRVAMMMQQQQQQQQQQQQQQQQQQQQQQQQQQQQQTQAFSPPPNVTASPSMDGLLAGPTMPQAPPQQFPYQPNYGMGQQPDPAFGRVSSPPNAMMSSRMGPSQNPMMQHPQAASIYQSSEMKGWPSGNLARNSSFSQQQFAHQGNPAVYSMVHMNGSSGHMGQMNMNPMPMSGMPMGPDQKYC

Question: What does the source list for CCOC(=O)C1CCCN(S(=O)(=O)c2cc(Br)cc3c2N(C(=O)C2CC2)CC3)C1 (stereo not drawn)?
Answer: EC50 [1]: > 79.4 µM (not active); EC50 [2]: > 79.4 µM (not active); EC50 [3]: > 79.4 µM (not active)

Question: Which IC50 (Aminopeptidase N) does the source give for CCOC(=O)c1c(NC(=O)CSc2nnc(C)c(=O)[nH]2)sc2c1CCCC2 here?
Answer: 62.1 µM (active)

Question: And the IC50 (Leucine aminopeptidase)?
Answer: 9.34 µM (active)

Question: Which IC50 [4] does the source give for COc1ccc([C@H]2CC(=O)C=C(c3ccc(OC)cc3OC)C2)cc1 here?
Answer: > 80 µM (inactive)

Question: Which results are given for CCOC(=O)c1ccccc1NC(=O)c1cn(-c2ccc(C)c(C)c2)c(=O)c2ccccc12?
Answer: EC50 [1]: > 79.4 µM (not active); EC50 [2]: > 79.4 µM (not active); EC50 [3]: > 79.4 µM (not active)

Question: With CCCCCCCOc1ccc(OC(=O)c2ccncc2)cc1 as the molecule, how does the IC50 [4] read?
Answer: > 80 µM (inactive)

Question: Which EC50 [5] does the source give for Cc1ccccc1C(=O)NNC(=S)NC(=O)c1cccs1 here?
Answer: 5.96 µM (active)

Question: What about the EC50 (Streptococcus) of the same molecule?
Answer: 18.2 µM (active)

Question: And the EC50 (Streptokinase A)?
Answer: > 150 µM (not active)

Question: And the EC50 [6]?
Answer: 3.53 µM (active)

Question: What about the CC50 (Vero) of the same molecule?
Answer: > 25 µM (active)

Question: Which results are given for Cc1cc(C)c(C(=O)CSc2nnc(-c3ccccc3Br)o2)cc1C?
Answer: EC50 [1]: 69.8 µM (not active); EC50 [2]: 32.6 µM (not active); EC50 [3]: 51.9 µM (not active)

Question: Which EC50 [5] does the source give for CC(=O)N1CCc2cc(Br)cc(S(=O)(=O)NCCCN(C)Cc3ccccc3)c21 here?
Answer: 0.149 µM (active)

Question: For O=C(c1cc(COc2ccc(F)cc2Cl)on1)N1CCCC(OCc2cccnc2)C1 (stereo not drawn), which EC50 [1] is on record?
Answer: > 79.4 µM (not active)

Question: And the EC50 [2]?
Answer: > 79.4 µM (not active)

Question: What about the EC50 [3] of the same molecule?
Answer: > 79.4 µM (not active)

Question: What does the source list for CCOC(=O)c1cnc(Nc2nc3ccccc3o2)nc1CSC(=S)N1CCCCC1?
Answer: EC50 [7]: > 60 µM (not active); CC50 [8]: 9.21 µM (active); EC50 (H4): > 120 µM (not active); IC50 (cells): 2.4 µM (active); EC50 [9]: 7.71 µM (active); CC50 [10]: > 40 µM (active)

Question: With CC1Cc2ccccc2N1C(=S)NC(=O)c1cccc(Br)c1 (stereo not drawn) as the molecule, how does the IC50 (Beta-galactosidase) read?
Answer: > 66.6 µM (inactive)

Question: Which EC50 [1] does the source give for COc1ccc(-c2cc(C(F)F)n3ncc(C(=O)N4CCCc5ccccc54)c3n2)cc1 here?
Answer: > 79.4 µM (not active)

Question: And the EC50 [2]?
Answer: > 79.4 µM (not active)

Question: What about the EC50 [3] of the same molecule?
Answer: > 79.4 µM (not active)

Question: With Clc1cccc(OCCN2CCN(CCOc3cccc(Cl)c3)CC2)c1 as the molecule, how does the CC50 [8] read?
Answer: > 20 µM (active)

Question: What about the IC50 (cells) of the same molecule?
Answer: 23.9 µM (active)

Question: What about the CC50 [10] of the same molecule?
Answer: 31.3 µM (active)

Question: With Cc1cc(CSC(=N)N)c(CSC(=N)N)cc1C as the molecule, how does the EC50 [5] read?
Answer: 2.11 µM (active)

Question: What about the EC50 [11] of the same molecule?
Answer: > 50 µM (active)

Question: For CCOC(=O)C1(Cc2cccc(F)c2)CCN(Cc2cnc(C)s2)CC1, which EC50 [5] is on record?
Answer: 0.944 µM (active)

Question: What does the source list for C/C(=N\NC(=S)NCCc1ccccc1)c1ccc(Cl)cc1Cl?
Answer: EC50 (Streptococcus): 21.2 µM (active); EC50 (Streptokinase A): > 150 µM (inconclusive); EC50 [6]: 4.66 µM (active); IC50 (Beta-galactosidase): > 66.6 µM (inactive)

Question: For O=C(CNC(=O)C(c1ccccc1)c1ccccc1)N/N=C/c1cccnc1, which IC50 [12] is on record?
Answer: 5.72 µM (not active)
